Assay results taken from publication PMC3805035 (Proteins, 2010).

Assays:
[1] = molecular target: T1, M. tuberculosis Rv3377c (halimadienyl diphosphate synthase) (Mycobacterium tuberculosis, UniProt O50406); assay type: biochemical
T1 sequence (O50406 1-501): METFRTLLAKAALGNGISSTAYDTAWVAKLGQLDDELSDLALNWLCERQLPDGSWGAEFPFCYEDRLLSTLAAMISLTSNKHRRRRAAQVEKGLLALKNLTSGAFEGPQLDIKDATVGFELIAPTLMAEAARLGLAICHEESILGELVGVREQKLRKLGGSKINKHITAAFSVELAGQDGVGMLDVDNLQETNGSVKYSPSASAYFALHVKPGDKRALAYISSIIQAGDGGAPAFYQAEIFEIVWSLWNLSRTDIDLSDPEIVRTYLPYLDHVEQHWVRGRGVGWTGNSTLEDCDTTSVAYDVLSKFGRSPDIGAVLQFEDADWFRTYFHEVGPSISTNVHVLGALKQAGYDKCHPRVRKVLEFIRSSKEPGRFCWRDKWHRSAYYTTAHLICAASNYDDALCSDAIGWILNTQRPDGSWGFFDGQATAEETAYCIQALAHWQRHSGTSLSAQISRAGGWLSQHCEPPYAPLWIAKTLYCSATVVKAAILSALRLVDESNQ

[2] = molecular target: T2, abietadiene synthase (AgABS) (Abies grandis, UniProt Q38710); assay type: biochemical
T2 sequence (Q38710 71-868): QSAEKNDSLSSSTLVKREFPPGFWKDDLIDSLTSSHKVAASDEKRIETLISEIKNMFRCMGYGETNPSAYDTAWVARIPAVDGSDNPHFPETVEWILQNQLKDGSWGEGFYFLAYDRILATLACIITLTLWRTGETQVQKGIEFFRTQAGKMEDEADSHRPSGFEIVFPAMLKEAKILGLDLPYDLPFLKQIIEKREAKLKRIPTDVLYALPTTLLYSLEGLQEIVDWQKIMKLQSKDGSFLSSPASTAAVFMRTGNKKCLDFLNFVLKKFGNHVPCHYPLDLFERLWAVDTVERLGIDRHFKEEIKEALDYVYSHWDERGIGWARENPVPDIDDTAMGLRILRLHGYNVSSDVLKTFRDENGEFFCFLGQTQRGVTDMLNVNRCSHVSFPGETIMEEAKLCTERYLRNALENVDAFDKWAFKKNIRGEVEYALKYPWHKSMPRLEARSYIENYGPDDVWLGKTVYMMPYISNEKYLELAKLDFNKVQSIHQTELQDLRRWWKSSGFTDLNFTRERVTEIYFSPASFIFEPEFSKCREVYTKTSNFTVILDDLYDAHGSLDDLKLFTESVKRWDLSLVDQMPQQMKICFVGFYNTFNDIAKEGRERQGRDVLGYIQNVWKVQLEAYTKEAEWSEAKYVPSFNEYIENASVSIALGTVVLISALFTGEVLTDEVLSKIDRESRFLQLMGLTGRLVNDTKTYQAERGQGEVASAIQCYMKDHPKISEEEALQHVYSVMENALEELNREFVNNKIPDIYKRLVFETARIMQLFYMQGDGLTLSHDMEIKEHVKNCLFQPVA

SMILES | activity against the M. tuberculosis protein (Rv3377c) [1] | effect on ABS activity [2] | other results
C/C(=C\CC/C(C)=C/COP(=O)(O)OP(=O)(O)O)CC/C=C(\C)CCCN(C)C [15-aza-GGPP] | – | – | IC50 ([1]; read-out: Rv3377c inhibition (quantity not given)): 5 nM
CC(C)=CCCC(C)=CCCC(C)=CCC(P(=O)(O)O)P(=O)(O)O [BPH-850, farnesylmethylene bisphosphonate] | – | – | comparison of IC50 using GGPP or CPP as substrate, ABS ([2]; GGPP versus CPP as substrate): about the same IC50
C=CCN(C)CCCCCCCCCCCCCCCC(=O)OC [BPH-922] | – | – | IC50 [2]: 250 nM
O=P(O)(O)C(O)(Cc1cnc2ccccn12)P(=O)(O)O [minodronate] | no activity | no effect | –
O=P(O)(O)C(O)(Cn1ccnc1)P(=O)(O)O [zoledronate] | no activity | no effect | –
